Assay results as given in patent publication US20060263238A1, “Decontamination of biological microbes using quaternary ammonium surfactants at elevated temperatures” (priority 2005, published 2006).

Columns and labels:
[1] = system: B. globigii spores; experiment: Optional wash assay (surfactant removed by centrifuging and washing spores before plating); type: cell-based, Bacillus globigii; conditions: between pH5 and pH7 at 70° C.; for reduction of spore decontamination (wash assay): data not shown
Description: (§1) Bacillus spores were suspended in the appropriate solvent at a concentration of 2 mg spores/ml (approximately 2×10^8 spores/ml). Starting volume of 1.125 ml of spores at 2 mg/ml. 3 or 4 spore aliquots of 50 μl per aliquot were removed. These aliquots were serially diluted in 1×PBS and plated on LB or TSA agar plates. This is a control step that gave the spore titer or colony-forming units (CFUs) at Time=0 minutes (T0). The appropriate decontamination solution (2× concentration) was aliquoted into each of 3 or 4 Eppendorf tubes with 200 ul per tube. Then 200 ul of spores were added and mixed to give a final concentration of 1× decontamination solution and 1 mg spores/ml. The spores in decontamination solution were then mixed and incubated for specific time periods and temperatures. A typical incubation was in a room temperature (25° C.) water bath for 30 (or 60) minutes. There was no agitation during the incubation period in order to mimic real world situations. Aliquots of spores were removed after 30 (or 60) minutes. The aliquots (3 or 4 replicates) were serially diluted in 1×PBS and plated on LB or TSA agar plates. This gave a CFU at Time=30 minutes (T30), which is the titer of live spores after the decontamination test. After removing the aliquots at the 30-minute time point, test (or control) samples were then immediately incubated in a 70° C. water bath for another 30 minutes. The samples were then serially diluted and plated on to LB or TSA agar plates to determine the titer after the 70° C. incubation. The entire dilution series from 0.1 through 0.000001 dilutions were plated. An optional wash assay was employed to confirm that the surfactant was killing spores rather than behaving as a bacterostatic agent. The wash assay included centrifuging and washing spores after decontamination. 100 ul of spores (after decontamination) were added to 200 ul of water and centrifuged at 10,000×g for one minute at room temperature. The supernatant was removed and saved. 10% of the supernatant volume was plated and titered as a wash control, to determine if live spores were being removed in the supernatant. Spore pellets were suspended in 1 ml of water and then pelleted at 10,000×g for one minute at room temperature. The supernatant was removed and saved. Spore pellets were washed again with 1 ml of water. Then spore pellets were suspended, serially diluted and plated. This removed the surfactant prior to plating and confirmed results that were bactericidal rather than bacterostatic.
An optional wash assay was employed to verify the results (data not shown). […]

[2] = system: B. globigii spores; experiment: Spore decontamination followed immediately by dilution and plating (CFU titer); type: cell-based, Bacillus globigii; conditions: for reduction of spores: 1% surfactant in water, >10^7 spores/ml, apparently independent of pH; for sporicidal (bacterial) activity: in the presence of moderate applied heat
Description: In the examples, below, three representative quaternary ammonium surfactants were tested for decontamination of Bacillus spores. The three exemplified quaternary ammonium surfactants are hexadecyltrimethylammonium chloride, dicocodimethylammonium chloride, and alkyldimethylbenzylammonium chloride. All three quaternary ammonium surfactants were dissolved in water and tested over a pH range. Testing occurred with and without applied heat. All experiments were performed with at least 3-4 replicates with many experiments reproduced numerous times.
as §1

[3] = 30 minutes at 25° C. (room temperature)

Row | Compound | spores alive out of the original 10-100 million spores (wash assay) [1] | reduction of spore decontamination (wash assay) [1] | reduction of spores [2, 3] | reduction of spores ([2]; 30 minutes at 70° C., complete) | sporicidal (bacterial) activity [2]
1 | CCCCCCCCCCCCCCCC[N+](C)(C)C.[Cl-] [hexadecyltrimethylammonium chloride] | less than 10 thousand | over 4 orders-of-magnitude | approximately 1 order-of-magnitude | greater than 7 orders-of-magnitude | strong sporicidal (bacterial) activity
2 | alkyldimethylbenzylammonium chloride | – | – | approximately 1 order-of-magnitude | greater than 7 orders-of-magnitude | strong sporicidal (bacterial) activity
3 | dicocodimethylammonium chloride | less than 10 thousand | over 4 orders-of-magnitude | approximately 1 order-of-magnitude | greater than 7 orders-of-magnitude | strong sporicidal (bacterial) activity
